Measured values as given in publication PMC7663263 (Molecules, 2020).

Legend:
O. ochengi microfilariae = O. ochengi microfilariae motility assay; type: cell-based, Onchocerca ochengi; settings: 10 μM
Procedure: (§1) O. ochengi microfilariae assays: were collected from the hides of infected cattle and washed prior to adding 10–15 microfilariae to 96-well culture plates containing confluent monkey kidney epithelial cells in 100 μL of media. Microfilariae were run in duplicate and plates were maintained at 37 °C in a 5% CO2 incubator. Microfilariae viability was visually scored using percent reduction of motility using the same scoring criteria used for adult males. Scores were recorded every 24 h after addition of drugs for 5 days using an inverted microscope.

[1] = test system: Leishmania donovani LV9 intramacrophage amastigotes; test: L. donovani LV9 intramacrophage amastigotes; type: cell-based; settings: read-out: Leishmania Donovani LV9 Intramacrophage Amastigotes IC50 (µm) ± SD
Procedure: In vitro anti-leishmanial evaluation was perfomed on both axenic and intramacrophage L. donovani amastigotes as previously described. […] Briefly, compounds were distributed in 96-well plates using 2-fold dilutions in 100 µL PYG medium. A. castellanii trophozoites were added to each well at 5 × 10^4 amoeba/mL in 200 µL final volume. L. donovani axenic amastigotes were added to each well at 10^6 parasites/mL in 200 µL final volume. After 72 h incubation at 27 °C, 20 µL of 1 mM resazurin was added to each well and further incubated at 27 °C for 8 h for A. castellanii and for 24 h for L. donovani axenic amastigotes. In living cells, resazurin is reduced in resorufin. This conversion is monitored by measuring the absorbance at specific wavelengths of resorufin (570 nm) and resazurin (600 nm) using a microplate reader (Labsystems Multiskan MS, McLean, VA, USA). In this assay, the activity was expressed in IC50. Miltefosine and pentamidine were used as reference drugs. All experiments were performed in three independent experiments.

L. loa microfilariae = L. loa microfilariae motility assay; type: cell-based; settings: 10 μM
Procedure: as §1
L. loa microfilariae assays: L. loa microfilariae were purified from the blood of infected individuals using a step-wise Percoll gradient (46% and 43% Percoll) followed by centrifugation at 400 rcf for 20 min. The microfilariae were recovered in the 43% layer then assayed using the same culture conditions and method as the O. ochengi microfilariae.

O. ochengi adult male = test: Onchocerca ochengi adult male worm motility assay; type: cell-based; settings: 10 μM
Procedure: Onchocerca ochengi adult worm assays: For O. ochengi worm assays, subcutaneous nodules containing adult O. ochengi worms were removed from the hides of infected cows collected at abattoirs in Douala, Cameroon. Masses were incubated in 4 mL of complete culture medium (RPMI-1640, 5% newborn calf serum, 200 units/mL penicillin, 200 μg/mL streptomycin and 2.5 μg/mL amphotericin B) in standard 12-well culture plates and maintained in a 37 °C, 5% CO2 incubator overnight during which time the adult males migrated out of the masses while the females remained in the nodules. Compound and control wells (worms in 1% DMSO) were tested in quadruplicate and experiments were repeated twice on different days. Cultures were terminated on day 7. […] Adult female worm viability was assessed on day 7 by the standard MTT/formazan assay in which each nodular mass was placed in a well of a 48-well plate containing 500 μL of 0.5 mg/mL MTT (Sigma-Aldrich) in culture medium. Viability was evaluated visually by the extent to which the female worm mass was stained with MTT. Mean percent inhibition of formazan formation was calculated relative to the negative control worm masses after 7 days in culture.

[2] = test system: TBL3 cells (BL3 infected with T. annulata); test: Proliferation test on Theileria annulata-infected cells (TBL3); type: cell-based, bovine / Theileria annulata; settings: 0.5 μM
Procedure: (§2) Theileria annulata culture: The TBL3 cell line was derived by in vitro infection of the spontaneous bovine B-lymphosarcoma cell line BL3 with the Hissar stock of T. annulata. B cell characteristics of the lines have been described. The cells are maintained at 37 °C under 5% CO2, in RPMI medium supplemented with 10% FCS, 25 mM Hepes, 4 mM L-glutamine, 100 μg/mL of streptomycin, 100 IU/mL of penicillin and […] 2-mercapthoethanol.
(§3) Cells were cultured in 12-well plates at an initial density of 200,000 cells per well in duplicate for each condition. […] The cells were cultured in 12-well plates at an initial density of 200,000 cells per well and drug was added every 24 h. To be able to compare the results, a drug-free control was also performed. Cell counting was done at 24, 72 and 96 h using the trypan blue method.

BL3 cells = type: cell-based, bovine
Procedure: as §2, §3

[3] = test system: primary mouse macrophages (PMM); test: in vitro
Procedure: Toxicity in human fetal lung fibroblast (MRC-5) cell line and primary mouse macrophages (PMM) was assessed using a previously reported assay in 96-well microtiter plates. Tamoxifen and miltefosine were included as reference drugs (Table 10).
For MRC5SV2 or PMM cells, the assays were performed in 96-well microtiter plates, each well containing 10 µL of compound dilution and 190 µL of cell inoculum (3 × 10^4 cells/mL) as reported. Cell growth was compared to untreated controls (100% growth) and assay-media controls (0% growth). After three-day incubation, cell viability was assessed fluorometrically by adding resazurin [50 µL/well of a stock solution in phosphate buffer (50 µg/mL)], incubating for 4 h and measuring fluorescence (ex 550 nm, em 590 nm). The results are expressed as percentage reduction in cell growth as compared to untreated control wells. […] Tamoxifen was included as the reference drug.

[4] = test system: adult ex vivo S. mansoni worms; test: Adult ex vivo Schistosoma worm killing assay; type: cell-based
Procedure: Adult ex vivo Schistosoma assay: Mice (Swiss-Webster) were infected with S. mansoni by percutaneous exposure for 1 h to cercariae (NMRI strain) obtained from infected Biomphalaria glabrata snails. This study was approved by the Institutional Animal Care and Use Committee of Rush University Medical Center (17-053; Department of Health and Human Services animal welfare assurance number A-3120-01). Adult worms were isolated from infected mice as described and cultured in RPMI medium +10% fetal calf serum (FCS), 10 mM glutamine, 100 IU/mL penicillin and 100 µg/mL streptomycin for 24 h before compound addition. Compounds were dissolved in DMSO and added at the indicated concentrations. The culture media was replaced every day and fresh compounds added. Control worms were treated with DMSO alone. Worms were cultured for 5 days. […] Assays were done in triplicate with about 10 worms in each well. This study was approved by the Institutional Animal Care and Use Committee of Rush University Medical Center (17-053; Department of Health and Human Services animal welfare assurance number A-3120-01).

Human TrxR = settings: 30 nM enzyme, 20 µM substrate; after 10 min enzyme-NADPH-gold complex preincubation; read-out: IC50 Human TrxR, substrate hTrxC72S; cited from earlier work

CC(=O)OCC1OC([S][Au][PH]2(c3ccccc3)C(c3ccccn3)=CC=C2c2ccccn2)C(OC(C)=O)C(OC(C)=O)C1OC(C)=O [GoPI-sugar, 1-thio-β-D-glucopyranose 2,3,4,6-tetraacetato-S-Au{1-phenyl-2,5-di(2-pyridyl)phosphole}]
% Inhibition of Motility O. ochengi mf Day 5 (O. ochengi microfilariae): 100%
IC50 [1]: 420 ± 150 nM
% Inhibition of Motility L. loa mf w/MK2 Cells Day 5 (L. loa microfilariae): 38%
% Inhibition of Motility O. ochengi Adult Male Day 5 (O. ochengi adult male): 100%
time at which the antiproliferative effect occurred ([2]; TBL3 cells): 24 h
number of TBL3 cells per well ([2]; first 24 h, initial density 200,000 cells per well): 200,000 cells per well
CC50 (BL3 cells): ~500 nM
CC50 [3]: 8000 nM
Dead (%) Day 1 ([4]; 1 μM): 0%
Dead (%) Day 2 ([4]; 1 μM): 0%
Dead (%) Day 3 ([4]; 1 μM): 0%
Dead (%) Day 4 ([4]; 1 μM): 0%
Dead (%) Day 5 ([4]; 1 μM): 0%
Dead (%) Day 1 ([4]; 5 μM): 100%
Dead (%) Day 1 ([4]; 10 μM): 100%
IC50 (Human TrxR): 4.3 ± 1.6 nM
